Measurements from US12365667B2, “Sulfone pyridine alkyl amide-substituted heteroaryl compounds” (BRISTOL-MYERS SQUIBB COMPANY, priority 2017, dated 2025).

system: IFNα-induced STAT phosphorylation (pSTAT5) in human whole blood; test: IFNα-Induced STAT Phosphorylation in Human Whole Blood; assay type: cell-based; conditions: 1 h incubation with compound, 1000 U/mL recombinant human IFNα A/D for 15 min, pSTAT5 in CD3 positive population, read-out: IFNα-Induced Stat Phosph. (IC50)
Description: IFNα-Induced STAT Phosphorylation in Human Whole Blood
After an hour long incubation with compound, human whole blood (drawn with either EDTA or ACD-A as anti-coagulant) was stimulated with 1000 U/mL recombinant human IFNα A/D (R&D Systems 11200-2) for 15 min. The stimulation was stopped by adding Fix/Lyse buffer (BD 558049). Cells were stained with a CD3 FITC antibody (BD 555916), washed, and permeabilized on ice using Perm III buffer (BD 558050). Cells were then stained with an Alexa-Fluor 647 pSTAT5 (pY694) antibody (BD 612599) for 30 min prior to analysis on the FACS Canto II. The amount of pSTAT5 expression was quantitated by median fluorescence intensity after gating on the CD3 positive population.

Compound	IC50 [nM]
CCC(=O)Nc1cc(Nc2nc(F)ccc2S(C)(=O)=O)c(C(=O)NC)nn1 [Example 179]	1060
CNC(=O)c1nnc(NC(=O)C2CC2)cc1Nc1nc(F)ccc1S(C)(=O)=O [Example 180]	73
CNC(=O)c1nnc(Nc2ccc(OC)nn2)cc1Nc1nc(F)ccc1S(C)(=O)=O [Example 181]	550
CNC(=O)c1nnc(Nc2ccc(-c3c(F)cccc3F)nn2)cc1Nc1nc(F)ccc1S(C)(=O)=O [Example 182]	2230
CNC(=O)c1nnc(Nc2ccc(-c3c(F)cccc3F)nn2)cc1Nc1nc(C)ccc1S(C)(=O)=O [Example 184]	263
CNC(=O)c1nnc(Nc2cc(C)nc(C)n2)cc1Nc1nc(C)ccc1S(C)(=O)=O [Example 185]	1730
CCC(=O)Nc1cc(Nc2nc(C)ccc2S(C)(=O)=O)c(C(=O)NC)nn1 [Example 186]	132
CNC(=O)c1nnc(NC(=O)C2CC2)cc1Nc1nc(C)ccc1S(C)(=O)=O [Example 187]	32
CNC(=O)c1nnc(Nc2ccc(C(C)(C)O)cn2)cc1Nc1nc(C)ccc1S(C)(=O)=O [Example 188]	6
CNC(=O)c1nnc(Nc2ccc(-n3cccc(C(F)(F)F)c3=O)cn2)cc1Nc1nc(C)ccc1S(C)(=O)=O [Example 190]	61
CCNC(=O)Nc1cc(Nc2nc(C)ccc2S(C)(=O)=O)c(C(=O)NC)nn1 [Example 191]	66
CNC(=O)c1nnc(Nc2ccc(N3CCOCC3)cn2)cc1Nc1nc(C)ccc1S(C)(=O)=O [Example 192]	13
CCCCNC(=O)Nc1cc(Nc2nc(C)ccc2S(C)(=O)=O)c(C(=O)NC)nn1 [Example 193]	165
CNC(=O)c1nnc(Nc2cc(Cl)c(C(C)(C)O)cn2)cc1Nc1nc(C)ccc1S(C)(=O)=O [Example 194]	35
CNC(=O)c1nnc(Nc2ccn3nccc3n2)cc1Nc1nc(C)ccc1S(C)(=O)=O [Example 195]	211
CNC(=O)c1nnc(Nc2ccc(N3CCOCC3=O)cn2)cc1Nc1nc(C)ccc1S(C)(=O)=O [Example 196]	12
CNC(=O)c1nnc(Nc2cc(C3CC3)ccn2)cc1Nc1nc(C)ccc1S(C)(=O)=O [Example 197]	58

Compound	IC50 [nM]
CNC(=O)c1nnc(NC(=O)C2CC2(C)C)cc1Nc1nc(C)ccc1S(C)(=O)=O (stereo not shown) [Example 198]	262
CNC(=O)c1nnc(NC(=O)C2CC2)cc1Nc1nc(OC)ccc1S(C)(=O)=O [Example 200]	198
CNC(=O)c1nnc(Nc2ccc(C(C)(C)O)cn2)cc1Nc1nc(OC)ccc1S(C)(=O)=O [Example 201]	24
CNC(=O)c1nnc(Nc2cc(Cl)c(C(C)(C)O)cn2)cc1Nc1nc(OC)ccc1S(C)(=O)=O [Example 202]	50
CNC(=O)c1nnc(Nc2ccc(N3CCOCC3)cn2)cc1Nc1nc(OC)ccc1S(C)(=O)=O [Example 203]	46
CNC(=O)c1nnc(Nc2ccn(C)n2)cc1Nc1nc(OC)ccc1S(C)(=O)=O [Example 204]	579
CNC(=O)c1cnc(Nc2ccccn2)cc1Nc1ncccc1S(C)(=O)=O [Example 216]	28
CNC(=O)c1cnc(Nc2ccc(Cl)cn2)cc1Nc1ncccc1S(C)(=O)=O [Example 217]	52
CNC(=O)c1cnc(Nc2cc(C)c(F)cn2)cc1Nc1ncccc1S(C)(=O)=O [Example 218]	34
CNC(=O)c1cnc(Nc2ccc(C(F)(F)F)cn2)cc1Nc1ncccc1S(C)(=O)=O [Example 219]	24
CNC(=O)c1cnc(Nc2ccc(C#N)cn2)cc1Nc1ncccc1S(C)(=O)=O [Example 220]	15
CNC(=O)c1cnc(Nc2cc(C#N)ccn2)cc1Nc1ncccc1S(C)(=O)=O [Example 221]	13
CNC(=O)c1cnc(Nc2cnc(C3CC3)cn2)cc1Nc1ncccc1S(C)(=O)=O [Example 222]	59
CNC(=O)c1cnc(Nc2ccc(C(F)(F)F)nn2)cc1Nc1ncccc1S(C)(=O)=O [Example 223]	94
CNC(=O)c1cnc(Nc2cccnn2)cc1Nc1ncccc1S(C)(=O)=O [Example 224]	44
CNC(=O)c1cnc(Nc2cc(C(F)(F)F)ncn2)cc1Nc1ncccc1S(C)(=O)=O [Example 225]	164

same assay, conditions: Homo sapiens, 1 h incubation with compound, 1000 U/mL recombinant human IFNα A/D for 15 min, pSTAT5 in CD3 positive population, read-out: IFNα-Induced Stat Phosph. (IC50)

Compound	IC50 [nM]
[2H]C([2H])([2H])NC(=O)c1nnc(Nc2ccc(C(C)(C)NC(C)C)cn2)cc1Nc1ncccc1S(C)(=O)=O [Example 169, 6-((5-(2-(isopropylamino)propan-2-yl)pyridin-2-yl)amino)-N-(methyl-d3)-4-((3-(methylsulfonyl)pyridin-2-yl)amino)pyridazine-3-carboxamide]	8
[2H]C([2H])([2H])NC(=O)c1nnc(Nc2ccc(C(C)(C)OC(C)=O)cn2)cc1Nc1ncccc1S(C)(=O)=O [Example 171, 2-(6-((6-((methyl-d3)carbamoyl)-5-((3-(methylsulfonyl)pyridin-2-yl)amino)pyridazin-3-yl)amino)pyridin-3-yl)propan-2-yl acetate]	9
[2H]C([2H])([2H])NC(=O)c1nnc(Nc2ccc(C(F)F)cn2)cc1Nc1ncccc1S(C)(=O)=O [Example 172, 6-((5-(difluoromethyl)pyridin-2-yl)amino)-N-(methyl-d3)-4-((3-(methylsulfonyl)pyridin-2-yl)amino)pyridazine-3-carboxamide]	18
[2H]C([2H])([2H])NC(=O)c1nnc(Nc2cncc(C)n2)cc1Nc1ncccc1S(C)(=O)=O [Example 173, N-(methyl-d3)-6-((6-methylpyrazin-2-yl)amino)-4-((3-(methylsulfonyl)pyridin-2-yl)amino)pyridazine-3-carboxamide]	17
[2H]C([2H])([2H])NC(=O)c1nnc(NC(=O)C2CC2(Cl)Cl)cc1Nc1ncccc1S(C)(=O)=O (stereo not shown) [Example 174, 6-(2,2-dichlorocyclopropane-1-carboxamido)-N-(methyl-d3)-4-((3-(methylsulfonyl)pyridin-2-yl)amino)pyridazine-3-carboxamide]	1810
[2H]C([2H])([2H])NC(=O)c1nnc(NC(=O)[C@H]2C[C@@H]2C(F)(F)F)cc1Nc1ncccc1S(C)(=O)=O [Example 175, N-(methyl-d3)-4-((3-(methylsulfonyl)pyridin-2-yl)amino)-6-((1S,2S)-2-(trifluoromethyl)cyclopropane-1-carboxamido)pyridazine-3-carboxamide]	278
[2H]C([2H])([2H])NC(=O)c1nnc(NC(=O)[C@@H]2C[C@H]2C(F)(F)F)cc1Nc1ncccc1S(C)(=O)=O [Example 176, N-(methyl-d3)-4-((3-(methylsulfonyl)pyridin-2-yl)amino)-6-((1R,2R)-2-(trifluoromethyl)cyclopropane-1-carboxamido)pyridazine-3-carboxamide]	132
[2H]C([2H])([2H])NC(=O)c1nnc(NC(=O)C2CC(F)(F)C2)cc1Nc1ncccc1S(C)(=O)=O [Example 177, 6-(3,3-difluorocyclobutane-1-carboxamido)-N-(methyl-d3)-4-((3-(methylsulfonyl)pyridin-2-yl)amino)pyridazine-3-carboxamide]	648
[2H]C([2H])([2H])NC(=O)c1nnc(Nc2cc(C)nc(C)n2)cc1Nc1nc(F)ccc1S(C)(=O)=O [Example 178, 6-((2,6-dimethylpyrimidin-4-yl)amino)-4-((6-fluoro-3-(methylsulfonyl)pyridin-2-yl)amino)-N-(methyl-d3)pyridazine-3-carboxamide]	474
[2H]C([2H])([2H])NC(=O)c1nnc(Nc2ccc(OC)nn2)cc1Nc1nc(C)ccc1S(C)(=O)=O [Example 183, 6-((6-methoxypyridazin-3-yl)amino)-N-(methyl-d3)-4-((6-methyl-3-(methylsulfonyl)pyridin-2-yl)amino)pyridazine-3-carboxamide]	105
[2H]C([2H])([2H])NC(=O)c1nnc(NC(=O)CC)cc1Nc1nc(OC)ccc1S(C)(=O)=O [Example 199, 4-((6-methoxy-3-(methylsulfonyl)pyridin-2-yl)amino)-N-(methyl-d3)-6-propionamidopyridazine-3-carboxamide]	1030
[2H]C([2H])([2H])NC(=O)c1nnc(Nc2ccc(C(C)(C)O)cc2)cc1Nc1nc(C2CC2)ccc1S(C)(=O)=O [Example 207, 4-((6-cyclopropyl-3-(methylsulfonyl)pyridin-2-yl)amino)-6-((4-(2-hydroxypropan-2-yl)phenyl)amino)-N-(methyl-d3)pyridazine-3-carboxamide]	229
CNC(=O)c1nnc(Nc2ccc(OC)nn2)cc1Nc1ncccc1S(C)(=O)=O [Example 209, 6-((6-methoxypyridazin-3-yl)amino)-N-methyl-4-((3-(methylsulfonyl)pyridin-2-yl)amino)pyridazine-3-carboxamide]	56
CCNC(=O)c1nnc(Nc2ccc(C(C)(C)O)cn2)cc1Nc1ncccc1S(C)(=O)=O [Example 211, N-ethyl-6-((5-(2-hydroxypropan-2-yl)pyridin-2-yl)amino)-4-((3-(methylsulfonyl)pyridin-2-yl)amino)pyridazine-3-carboxamide]	90
COc1ccc(Nc2cc(Nc3ncccc3S(C)(=O)=O)c(C(N)=O)nn2)nn1 [Example 213, 6-((6-methoxypyridazin-3-yl)amino)-4-((3-(methylsulfonyl)pyridin-2-yl)amino)pyridazine-3-carboxamide]	114
[2H]C([2H])([2H])NC(=O)c1cnc(Nc2ccc(F)cn2)cc1Nc1ncccc1S(C)(=O)=O [Example 215, 6-((5-fluoropyridin-2-yl)amino)-N-(methyl-d3)-4-((3-(methylsulfonyl)pyridin-2-yl)amino)nicotinamide]	21
